Test results as given in patent EP3708565A1, “PYRIMIDINYLOXYPHENYLAMIDINES AND THE USE THEREOF AS FUNGICIDES” (Bayer AG, priority 2020, dated 2020).

How the values were obtained:
[1] = test system: Puccinia recondita; assay: in vivo preventive test on Puccinia recondita (brown rust on wheat); conditions: for pest or weed control at 500 ppm: Puccinia recondita, 264 h, 500 ppm of active ingredient, young wheat plants sprayed, inoculated after 24 hours, evaluated 11 days after the inoculation, read-out: efficacy
Procedure: Example: in vivo preventive test on Puccinia recondita (brown rust on wheat)
(§1) The active ingredients were made soluble and homogenized in a mixture of Dimethyl sulfoxide/Acetone/ /Tween® 80 and then diluted in water to the desired concentration.
The young plants of wheat were treated by spraying the active ingredient prepared as described above. Control plants were treated only with an aqueous solution of Acetone/Dimethyl sulfoxide/ Tween® 80.
After 24 hours, the plants were contaminated by spraying the leaves with an aqueous suspension of Puccinia recondita spores. The contaminated wheat plants were incubated for 24 hours at 20°C and at 100% relative humidity and then for 10 days at 20°C and at 70-80% relative humidity.
The test was evaluated 11 days after the inoculation. 0% means an efficacy which corresponds to that of the control plants while an efficacy of 100% means that no disease was observed.

[2] = test system: Sphaerotheca fuliginea; assay: in vivo preventive test on Sphaerotheca fuliginea (powdery mildew on cucurbits); conditions: Podosphaera fuliginea, 192 h; 500 ppm of active ingredient; young gherkin plants sprayed, inoculated after 24 hours, evaluated 8 days after the inoculation; read-out: efficacy
Procedure: Example: in vivo preventive test on Sphaerotheca fuliginea (powdery mildew on cucurbits)
as §1
The young plants of gherkin were treated by spraying the active ingredient prepared as described above. Control plants were treated only with an aqueous solution of Acetone/Dimethyl sulfoxide/ […].
After 24 hours, the plants were contaminated by spraying the leaves with an aqueous suspension of Sphaerotheca fuliginea spores. The contaminated gherkin plants were incubated for 8 days at 20°C and at 70-80% relative humidity.
The test was evaluated 8 days after the inoculation. 0% means an efficacy which corresponds to that of the control plants while an efficacy of 100% means that no disease was observed.

[3] = LogP measurement by HPLC on reversed phase columns (EEC directive 79/831 Annex V.A8); assay type: physicochemical
Procedure: If more than one LogP value is available within the same method, all the values are given and separated by "+".
Lambda-max-values were determined using UV-spectra from 200 nm to 400 nm and the peak values of the chromatographic signals.

[4] = test system: Phakospora pachyrhizi; assay: in vivo preventive test on Phakospora pachyrhizi (soybean rust); conditions: for pest or weed control at 500 ppm: Glycine max, 288 h, 500 ppm of active ingredient, young soybean plants sprayed, inoculated after 24 hours, evaluated 12 days after the inoculation, read-out: efficacy
Procedure: Example: in vivo preventive test on Phakospora pachyrhizi (soybean rust)
as §1
The young plants of soybean were treated by spraying the active ingredient prepared as described above. Control plants were treated only with an aqueous solution of Acetone/Dimethyl sulfoxide/ […].
After 24 hours, the plants were contaminated by spraying the leaves with an aqueous suspension of Phakosporapachyrhizi spores. The contaminated soybean plants were incubated for 24 hours at 24°C and at 100% relative humidity and then for 11 days at 24°C and at 70-80% relative humidity.
The test was evaluated 12 days after the inoculation. 0% means an efficacy which corresponds to that of the control plants while an efficacy of 100% means that no disease was observed.

[5] = reversed phase HPLC column, method [a]: LC-UV, acidic range, 0.1% formic acid in water and acetonitrile as eluent
[6] = reversed phase HPLC column, method [b]: LC-UV, neutral range, 0.001 molar ammonium acetate solution in water and acetonitrile as eluent

chromatographic logP [3, 5] | chromatographic logP [3, 6] | chromatographic logP ([3]; method [a]: LC-UV, acidic range, 0.1% formic acid in water and acetonitrile as eluent) | chromatographic logP ([3]; method [b]: LC-UV, neutral range, 0.001 molar ammonium acetate solution in water and acetonitrile as eluent) | Compound | pest or weed control at 500 ppm [1] [%] | pest or weed control at 500 ppm [2] [%] | pest or weed control at 500 ppm [4] [%] | efficacy ([1]; 500 ppm) | efficacy ([4]; 500 ppm)
1.86 |  |  |  | CCN(C)C=Nc1cc(C)c(Oc2ccnc(SC3CCCCC3)n2)cc1C [I.011, N'-[4-(2-cyclohexylsulfanylpyrimidin-4-yl)oxy-2,5-dimethylphenyl]-N-ethyl-N-methylmethan-imidamide] | ≥ 70 | ≥ 70 | ≥ 70 |  | 
1.61 | 5.06 |  |  | CCN(C)C=Nc1cc(C)c(Oc2ccnc(SCC(C)C)n2)cc1C [I.026, N'-[2,5-dimethyl-4-[2-(2-methylpropylsulfanyl)pyrimidin-4-yl]oxyphenyl]-N-ethyl-N-methyl-methanimidamide] | ≥ 70 |  | ≥ 70 |  | 
1.46 | 4.56 |  |  | CCN(C)C=Nc1cc(C)c(Oc2ccnc(C(C)(C)C)n2)cc1C [I.032, N'-[4-(2-tert-butylpyrimidin-4-yl)oxy-2,5-dimethylphenyl]-N-ethyl-N-methylmethanimidamide] | ≥ 70 |  | ≥ 70 |  | 
1.93 |  |  |  | CCN(C)C=Nc1cc(C(F)(F)F)c(Oc2ccnc(SCC(C)C)n2)cc1C [I.035, N-ethyl-N-methyl-N'-[2-methyl-4-[2-(2-methylpropylsulfanyl)pyrimidin-4-yl]oxy-5-(trifluoromethyl)phenyl]methanimidamide] | ≥ 70 |  | ≥ 70 |  | 
 |  | 1.58 | 4.93 | CCN(C)C=Nc1cc(Br)c(Oc2ccnc(C(C)(C)C)n2)cc1C [I.038, N'-[5-bromo-4-(2-tert-butylpyrimidin-4-yl)oxy-2-methylphenyl]-N-ethyl-N-methylmethanimid-amide] |  |  |  | at least 70% | at least 70%
1.52 | 4.35 |  |  | CCN(C)C=Nc1cc(C)c(Oc2ccnc(SC(C)C)n2)cc1Cl [I.046, N'-[2-chloro-5-methyl-4-(2-propan-2-ylsulfanylpyrimidin-4-yl)oxyphenyl]-N-ethyl-N-methyl-methanimidamide] | ≥ 70 |  |  |  | 
1.13 |  |  |  | CCN(C)C=Nc1cc(C)c(Oc2ccnc(Sc3ccncc3)n2)cc1C [I.047, N'-[2,5-dimethyl-4-(2-pyridin-4-ylsulfanylpyrimidin-4-yl)oxyphenyl]-N-ethyl-N-methylmethan-imidamide] |  | ≥ 70 |  |  | 
1.72 | 4.77 |  |  | CCN(C)C=Nc1cc(C)c(Oc2ccnc(SCC(C)C)n2)cc1Cl [I.048, N'-[2-chloro-5-methyl-4-[2-(2-methylpropylsulfanyl)pyrimidin-4-yl]oxyphenyl]-N-ethyl-N-methylmethanimidamide] | ≥ 70 | ≥ 70 |  |  | 
1.6 | 4.5 |  |  | CCN(C)C=Nc1cc(C#N)c(Oc2ccnc(SCC(C)C)n2)cc1C [I.049, N'-[5-cyano-2-methyl-4-[2-(2-methylpropylsulfanyl)pyrimidin-4-yl]oxyphenyl]-N-ethyl-N-methylmethanimidamide] | ≥ 70 | ≥ 70 |  |  | 
1.44 | 4.16 |  |  | CCCSc1nccc(Oc2cc(C)c(N=CN(C)CC)cc2C#N)n1 [I.050, N'-[5-cyano-2-methyl-4-(2-propylsulfanylpyrimidin-4-yl)oxyphenyl]-N-ethyl-N-methylmethan-imidamide] | ≥ 70 | ≥ 70 |  |  | 
1.9 |  |  |  | CCN(C)C=Nc1cc(C(F)F)c(Oc2nc(SCC(C)C)ncc2C)cc1C [I.051, N'-[5-(difluoromethyl)-2-methyl-4-[5-methyl-2-(2-methylpropylsulfanyl)pyrimidin-4-yl]oxyphenyl]-N-ethyl-N-methylmethanimidamide] |  | ≥ 70 |  |  | 

The next lines start with the compound.

Compound | chromatographic logP [3, 5] | chromatographic logP [3, 6] | chromatographic logP ([3]; method [a]: LC-UV, acidic range, 0.1% formic acid in water and acetonitrile as eluent) | chromatographic logP ([3]; method [b]: LC-UV, neutral range, 0.001 molar ammonium acetate solution in water and acetonitrile as eluent) | pest or weed control at 500 ppm [1] [%] | pest or weed control at 500 ppm [2] [%] | pest or weed control at 500 ppm [4] [%] | efficacy ([1]; 500 ppm) | efficacy ([4]; 500 ppm)
CCC(C)Sc1nccc(Oc2cc(C)c(N=CN(C)CC)cc2C)n1 (racemic) [I.004, N'-[2,5-dimethyl-4-[2-[rac-(2R)-butan-2-yl]sulfanylpyrimidin-4-yl]oxyphenyl]-N-ethyl-N-methylmethanimidamide] | 1.87 |  |  |  | ≥ 70 | ≥ 70 | ≥ 70 |  | 
CCN(C)C=Nc1cc(Br)c(Oc2ccnc(SC(C)(C)C)n2)cc1C [I.001, N'-[5-bromo-4-(2-tert-butylsulfanylpyrimidin-4-yl)oxy-2-methylphenyl]-N-ethyl-N-methyl-methanimidamide] | 1.72 | 4.95 |  |  | ≥ 70 | ≥ 70 | ≥ 70 |  | 
CCN(C)C=Nc1cc(C)c(Oc2ccnc(SCCC(C)C)n2)cc1C [I.002, N'-[2,5-dimethyl-4-[2-(3-methylbutylsulfanyl)pyrimidin-4-yl]oxyphenyl]-N-ethyl-N-methyl-methanimidamide] | 1.9 | 5.66 |  |  | ≥ 70 | ≥ 70 | ≥ 70 |  | 
CCN(C)C=Nc1cc(C)c(Oc2ccnc(CCC(C)(C)C)n2)cc1C [I.003, N'-[4-[2-(3,3-dimethylbutyl)pyrimidin-4-yl]oxy-2,5-dimethylphenyl]-N-ethyl-N-methylmethan-imidamide] | 1.63 | 4.89 |  |  | ≥ 70 | ≥ 70 | ≥ 70 |  | 
CCN(C)C=Nc1cc(Br)c(Oc2ccnc(SCC(F)(F)F)n2)cc1C [I.005, N'-[5-bromo-2-methyl-4-[2-(2,2,2-trifluoroethylsulfanyl)pyrimidin-4-yl]oxyphenyl]-N-ethyl-N-methylmethanimidamide] | 1.58 | 4.66 |  |  | ≥ 70 | ≥ 70 | ≥ 70 |  | 
CCN(C)C=Nc1cc(C)c(Oc2ccnc(SCC(F)(F)F)n2)cc1Cl [I.006, N'-[2-chloro-5-methyl-4-[2-(2,2,2-trifluoroethylsulfanyl)pyrimidin-4-yl]oxyphenyl]-N-ethyl-N-methylmethanimidamide] | 1.53 | 4.19 |  |  | ≥ 70 | ≥ 70 | ≥ 70 |  | 
CCN(C)C=Nc1cc(Br)c(Oc2ccnc(SCC(C)C)n2)cc1C [I.007, N'-[5-bromo-2-methyl-4-[2-(2-methylpropylsulfanyl)pyrimidin-4-yl]oxyphenyl]-N-ethyl-N-methylmethanimidamide] | 1.81 | 5.25 |  |  | ≥ 70 | ≥ 70 | ≥ 70 |  | 
CCN(C)C=Nc1cc(C)c(Oc2ccnc(Sc3ccccc3F)n2)cc1C [I.008, N-ethyl-N'-[4-[2-(2-fluorophenyl)sulfanylpyrimidin-4-yl]oxy-2,5-dimethylphenyl]-N-methyl-methanimidamide] | 1.6 |  |  |  | ≥ 70 | ≥ 70 | ≥ 70 |  | 
CCN(C)C=Nc1cc(C)c(Oc2ccnc(Sc3cccc(F)c3)n2)cc1C [I.009, N-ethyl-N'-[4-[2-(3-fluorophenyl)sulfanylpyrimidin-4-yl]oxy-2,5-dimethylphenyl]-N-methyl-methanimidamide] | 1.66 |  |  |  | ≥ 70 | ≥ 70 | ≥ 70 |  | 
CCN(C)C=Nc1cc(C)c(Oc2ccnc(Sc3ccc(F)cc3)n2)cc1C [I.010, N-ethyl-N'-[4-[2-(4-fluorophenyl)sulfanylpyrimidin-4-yl]oxy-2,5-dimethylphenyl]-N-methyl-methanimidamide] | 1.6 |  |  |  | ≥ 70 | ≥ 70 | ≥ 70 |  | 
